# Results: PubChem BioAssay (NCI)
#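 48-hour exposure; five concentrations; linearly interpolated endpoints. At the GI50, growth is halved. TGI marks complete inhibition of growth.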
# Key:
# Experiment in all cases: inhibition of tumour cell growth, NCI panel, 48 h
# [1] = tested on: MOLT-4 leukemia
# [2] = tested on: SNB-75 CNS
# [3] = tested on: NCI-H460 lung
# [4] = tested on: IGROV1 ovarian
# [5] = tested on: NCI-H226 lung
# [6] = tested on: UACC-62 melanoma
# [7] = tested on: ACHN renal
# [8] = tested on: SF-539 CNS
# [9] = tested on: 786-0 renal
# [10] = tested on: SR leukemia
SMILES,TGI [1],TGI [2],TGI [3],TGI [4],TGI [5],TGI [6],TGI [7],TGI [8],TGI [9],TGI [10],GI50 [1],GI50 [2],GI50 [3],GI50 [4],GI50 [5],GI50 [6],GI50 [7],GI50 [8],GI50 [9],GI50 [10]
CC(Br)C(=O)Nc1ccc(C(=O)O)c(O)c1 (stereo not given),> 100 µM,> 100 µM,> 100 µM,> 100 µM,> 100 µM,> 100 µM,> 100 µM,> 100 µM,> 100 µM,> 100 µM,,,,,,,,,,
O=C(O)CCSC(=O)Nc1ccc(N=Nc2ccccc2)cc1,> 100 µM,> 100 µM,> 100 µM,> 100 µM,> 100 µM,> 100 µM,> 100 µM,> 100 µM,> 100 µM,> 100 µM,,,,,,,,,,
O=C1OC(CN2CCOCC2)CN1/N=C/c1ccc([N+](=O)[O-])o1 (stereo not given),> 100 µM,> 100 µM,> 100 µM,84.8 µM,> 100 µM,99.2 µM,> 100 µM,> 100 µM,> 100 µM,> 100 µM,,,,,,,,,,
CCC(=O)N/N=C(\C=C\c1cccc(O)c1)c1sc(Nc2ccc(C)cc2[N+](=O)[O-])nc1C,> 100 µM,> 100 µM,> 100 µM,> 100 µM,> 100 µM,> 100 µM,> 100 µM,> 100 µM,> 100 µM,> 100 µM,,,,,,,,,,
Cn1cnc([N+](=O)[O-])c1Sc1ncn[nH]1,> 100 µM,> 100 µM,> 100 µM,> 100 µM,> 100 µM,> 100 µM,> 100 µM,> 100 µM,> 100 µM,> 100 µM,> 100 µM,> 100 µM,> 100 µM,40.7 µM,> 100 µM,96.3 µM,76.1 µM,> 100 µM,> 100 µM,35.1 µM
COc1cc2c(c(OC3OC(CO)C(O)C(O)C3O)c1)C(=O)CC(c1ccc(O)cc1)O2 (stereo not given),> 100 µM,> 100 µM,> 100 µM,> 100 µM,> 100 µM,> 100 µM,> 100 µM,> 100 µM,> 100 µM,> 100 µM,,,,,,,,,,
